Measurements as given in US9833447B2, “5-HT4 receptor agonist for gastroparesis” (RAQUALIA PHARMA INC., priority 2014, dated 2017).
“Also recorded” adds a separate entry of the source.

Assays:
[1] = system: clonidine-induced gastroparesis model in dogs; assay: Gastric emptying rates in conscious dogs, clonidine-induced gastroparesis model (acetaminophen method); format: in vivo, beagle dogs; settings: clonidine 0.01 mg/kg s.c.
Description: Measurement of Gastric Emptying Rates in Conscious Dogs
All dogs are purchased from Kitayama Labes Co., Ltd. (Oriental Yeast Co., Ltd.). The animals are acclimatized to the laboratory conditions during experiments.
Dogs are fasted overnight, and then they are fed the test meal (10 mL/kg), which is ingested within 3 minutes. Blood samples are obtained at 0, 15, 30, 45, 60, 75, and 90 minutes after test meal administration. To provide a model of gastroparesis, 0.01 mg/kg of clonidine (alpha2 adrenergic agonist, Wako Pure Chemical Industries, Ltd., Osaka, Japan) is injected subcutaneously 30 minutes before test meal administration. […] Plasma is separated from the blood by centrifugation at 3,000 g for 5 min at 4° C. (himac CF15D, Hitachi Koki Co., Ltd., Tokyo, Japan). The plasma acetaminophen concentration is measured by LC-mass spectrometry.
Aliquots of dog plasma (50 microL) and 50 microL of internal standard (IS)* solution are mixed and vortexed well, and then they are diluted to a final volume of 750 microL with 50 mM ammonium acetate. As IS, [D4]4-acetamidophenol is used. Following conditioning of the solid phase extraction (SPE) 96 well plate (OASIS HLB, 10 mg/well, 30 microm, Waters Corporation, Milford, Mass., USA) with 700 microL methanol and 700 microL water in sequence, 750 microL of the plasma samples are transferred to the SPE plate for extraction. The SPE plate is then washed with 700 microL of 5% methanol. Samples are eluted twice off the SPE plate into a clean 96 deep well plate by addition of 250 microL of methanol. The eluent is then evaporated to dryness under 40° C. gentle stream of nitrogen, and reconstituted in 100 microL of acetonitrile/10 mM ammonium acetate (1/9, v/v). The samples are injected into HPLC column, and then the effluent from HPLC column is directly introduced into the turboionspray ion source, which is operated at the following conditions: * 300 ng/mL [D4]4-acetamidophenol: 10% methanol solution.

[2] = system: healthy male human subjects; assay: Gastric emptying rates in healthy male human subjects (13C-breath test, BreathID); format: in vivo
Description: Measurement of Gastric Emptying Rates in Human Study Population
Healthy male subjects, who aged between 18 and 55 years old and have a normal gastric emptying (GE) rate, are screened and enrolled into the study.
Subjects are given single oral doses of Compound A at 0.6 and 3 microg. Subjects swallowed dosing solution (20 mL) of appropriate Compound A concentrations. The dosing bottle is rinsed with 20 mL of water, and this rinse is swallowed by the subjects. The subjects then swallowed 200 mL of room temperature water, resulting in a total fluid intake at dosing of 240 mL.
GE is monitored with ^13C-breath test using the BreathiD system (Exalenz Bioscience Inc., Modin, Israel), which enables to continuously analyze the subject's breath for exhaled CO2 via a nasal cannula using molecular correlation spectrometry at the bedside. […] GE rate of solids is evaluated over the 4 hours period following ingestion of a standardized solid test meal, which are comprised of 2 slices of bread, 1 egg and 150 mL water including an egg yolk that have been mixed with 100 mg ^13C-octanoic acid (total calorific intake of 200-300 kcal). […] The parameters for GE of gastric half emptying time (GET1/2), lag phase (Tlag), gastric emptying coefficient (GEC) and gastric emptying area under the effect curve (AUEC) are automatically calculated.

[3] = system: patients with gastroparesis; assay: Gastric emptying rates in patients with gastroparesis (SmartPill); format: in vivo, human
Description: Measurement of Gastric Emptying Rates in Patients with Gastroparesis Clinical studies in patients with gastroparesis are conducted. Effect of Compound A on gastric emptying time (GET) is confirmed with SmartPill (Registered Trademark, Given Imaging Ltd.). SmartPill is an ingestible capsule that measures pressure, pH and temperature as it travels through the gastrointestinal (GI) tract to assess GI motility. The SmartPill motility monitoring test can be performed at a clinic or physician's office to evaluate motility disorders like gastroparesis (a condition in which the contents of the stomach empty too slowly) and chronic constipation. An improved gastric emptying time and colonic transit time are observed in the clinical studies.

COc1cc(N)c(Cl)cc1C(=O)NC1CCN(CCCOc2ccc(F)cc2)CC1OC (stereo not shown) [Cisapride, cisapride, reference compound]
Effect on delayed gastric emptying induced by clonidine (plasma acetaminophen) ([1]; cisapride 1, 3 mg/kg p.o.): reversed delayed gastric emptying

Clc1cccc(Cl)c1N=C1NCCN1 [clonidine, reference compound]
Plasma APAP concentration at 60 min after meal administration ([1]; gastroparesis model induction): significantly decreased

O=C(O)C1(CN2CCC(COc3noc4cccc(OCC(F)(F)F)c34)CC2)CCOCC1 [Compound A, 4-{[4-({[4-(2,2,2-trifluoroethoxy)-1,2-benzisoxazol-3-yl]-oxy}methyl)piperidin-1-yl]methyl}tetrahydro-2H-pyran-4-carboxylic acid]
Effect on delayed gastric emptying induced by clonidine (plasma acetaminophen) ([1]; Compound A 0.3 microg/kg p.o.): significantly restored delayed gastric emptying induced by clonidine (0.01 mg/kg) to the normal levels; also recorded: equivalent to that of cisapride (1 mg/kg, p.o.) | Severe Adverse Events and undesirable adverse events including QT/QTc prolongation ([2]; even at supratherapeutic doses, human healthy subjects): No Severe Adverse Events (SAEs) and undesirable adverse events | Absolute change from baseline in gastric half emptying time (GET1/2) ([2]; single oral doses 0.6 and 3 microg, healthy male human subjects): clearly observed; also recorded: improved | Colonic transit time [3]: improved | Gastric emptying time (GET) [3]: improved
